Results as given in patent publication US10934282B2, “Heteroaromatic modulators of the retinoid-related orphan receptor gamma” (LEO PHARMA A/S, priority 2016, dated 2021).

Tests used:
[1] = system: IL-17A in Human peripheral mononuclear cells; test: Human PBMC IL-17A assay; format: cell-based; details: 72 h, EC50, antiCD3/antiCD28-coated beads, 3 days, alpha-LISA
Experimental: This assay measures the IL-17A inhibitory potential of test compounds in Human peripheral mononuclear cells.
Peripheral blood mononuclear cells (PBMC) were isolated from human buffy coats using density grade centrifugation (Lymphoprep, Medinor), washed twice in PBS and frozen at −150° C. for later use.
Test compounds were diluted in DMSO and 70 nL of titrated test and reference compounds were transferred by the Echo liquid handling system to a 384-well assay plate in to give a final concentration of 0.1% DMSO in the wells.
The PBMC were thawed, washed and suspended in RPMI-1640 supplemented with pen/strep, glutamax and 10% bovine calf serum. The cells were mixed with antiCD3/antiCD28-coated beads (1 cells pr one bead) (Milteney T-cell expansion kit), and immediately thereafter the cells were pipetted to the plate at 130,000c/well. The plate was incubated for 3 days in humidified air/CO2 (95%/5%) On day 3 the level of IL-17A in the culture supernatant is measured using alpha-LISA kit (Perkin Elmer). Cell viability was measured by adding 6 uL pr well Prestoblue© (Life Technologies) and incubating for 2 hours followed by fluorescent measurement (Ex535/Em615). EC50 values were calculated using a 4-parameter non-linear regression curve-fitting model. Donors may be pre-screened in order to select PBMC with a high secretion of IL-17A.

[2] = target: T1, human RORgt nuclear receptor (RORgT ligand binding domain protein) (Homo sapiens, UniProt P51449); test: ROR-gamma binding assay (Scintillation Proximity Assay, displacement of [3H]-25-hydroxycholesterol); details: EC50, SPA, 15 nM [3H]-25-Hydroxycholesterol, RORgT LBD 12 nM
T1 construct: purchased Proteros Biostructures GmbH
T1 sequence (P51449 with tags, fused parts or gaps): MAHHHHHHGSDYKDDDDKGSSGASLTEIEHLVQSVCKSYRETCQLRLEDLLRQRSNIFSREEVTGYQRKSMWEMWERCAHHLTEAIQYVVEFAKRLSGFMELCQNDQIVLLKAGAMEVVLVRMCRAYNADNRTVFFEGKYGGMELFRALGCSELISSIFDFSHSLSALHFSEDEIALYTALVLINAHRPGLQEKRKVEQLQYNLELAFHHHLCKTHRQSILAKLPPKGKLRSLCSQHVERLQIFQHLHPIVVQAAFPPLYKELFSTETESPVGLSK
Experimental: This assay is used to evaluate the binding affinity of compounds to the ligand-binding pocket of the human RORgt nuclear receptor based on displacement of a radio-ligand. The EC50 values are calculated using a four parameter fit. Compounds binding with high affinity to RORgt will have low EC50 values.
The assay is a Scintillation Proximity Assay (SPA) that involves competition between an unlabeled test compound and tritium-labeled 25-hydroxycholesterol for binding to RORgT ligand binding domain (LBD) protein immobilized on the surface of SPA beads. These beads contain a scintillant that emits light if excited by a radioactive particle, and this light is detected using a scintillation counter. In this assay, tritium-labelled 25-hydroxycholesterol is used as radiotracer.
400 nL of titrated test and reference compounds in DMSO were transferred by the Echo liquid handling system to a 384-well assay plate followed by addition of 5 μL [3H]-25-Hydroxycholesterol (Perkin Elmer) and 35 μL diluted RORgT LBD protein with the following amino acid sequence (HIS-FLG-tag): MAHHHHHHGSDYKDDDDKGSSGASLTEIEHLVQSVCKSYRETCQLRLEDLLRQRSNIFSREEVTGYQRKSMWEMWERCAHHLTEAIQYVVEFAKRLSGFMELCQNDQIVLLKAGAMEVVLVRMCRAYNADNRTVFFEGKYGGMELFRALGCSELISSIFDFSHSLSALHFSEDEIALYTALVLINAHRPGLQEKRKVEQLQYNLELAFHHHLCKTHRQSILAKLPPKGKLRSLCSQHVERLQIFQHLHPIVVQAAFPPLYKELFSTETESPVGLSK (SEQ ID NO: 1) (Purchased from Proteros Biostructures GmbH). After 30 min of preincubation, 40 μL of HIS-TAG PVT SPA beads (Perkin Elmer) were added. The plates were then incubated for minimum 4 hours at room temperature in darkness before measuring the SPA signal using a MicroBeta plate scintillation counter. Final assay conditions were: 50 mM HEPES pH 7.4, 150 mM NaCl, 5 mM MgCl2, 0.1% BSA, 4 μg/well HIS-TAG PVT SPA Beads, 30 ng/well RORgT LBD (equal to a final concentration of 12 nM), 15 nM [^3H]-25-Hydroxycholesterol, 0.5% DMSO and varying concentrations of test compound in a total volume of 80 μL/well. EC50 values were calculated using a 4-parameter non-linear regression curve-fitting model.

[3] = system: IL-17A levels in human peripheral blood; test: tissue or blood; format: cell-based; details: 72 h, read-out: Human Whole blood IL-17A (nM)

## Cc1cc(CN2CCN(C(=O)OC(C)(C)C)[C@@H](C)C2)c(C)c(Nc2nnc(-c3ccnn3C)o2)c1 [Example 31, tert-butyl (2S)-4-[[2,5-dimethyl-3-[[5-(2-methylpyrazol-3-yl)-1,3,4-oxadiazol-2-yl]amino]phenyl]methyl]-2-methyl-piperazine-1-carboxylate]
[1]
  EC50: 63.5 nM
[2]
  EC50: 32.4 nM
[3]
  EC50: 231 nM

## Cc1cc(CN2CCN(C(=O)OC(C)(C)C)[C@@H](C)C2)c(C)c(Nc2nnc(-c3ccno3)o2)c1 [Example 32, tert-butyl (2S)-4-[[3-[(5-isoxazol-5-yl-1,3,4-oxadiazol-2-yl)amino]-2,5-dimethyl-phenyl]methyl]-2-methyl-piperazine-1-carboxylate]
[1]
  EC50: 101 nM
[2]
  EC50: 26.4 nM
[3]
  EC50: 392 nM

## Cc1cc(CN2CCN(C(=O)OC(C)(C)C)[C@@H](C)C2)c(C)c(Nc2nnc(-c3cnsn3)o2)c1 [Example 33, tert-butyl (2S)-4-[[2,5-dimethyl-3-[[5-(1,2,5-thiadiazol-3-yl)-1,3,4-oxadiazol-2-yl]amino]phenyl]methyl]-2-methyl-piperazine-1-carboxylate]
[1]
  EC50: 45.2 nM
[2]
  EC50: 23.3 nM
[3]
  EC50: 126 nM

## Cc1cc(CN2CCN(C(=O)OC(C)(C)C)[C@@H](C)C2)c(C)c(Nc2nnc(-c3nonc3C)o2)c1 [Example 34, tert-butyl (2S)-4-[[2,5-dimethyl-3-[[5-(4-methyl-1,2,5-oxadiazol-3-yl)-1,3,4-oxadiazol-2-yl]amino]phenyl]methyl]-2-methyl-piperazine-1-carboxylate]
[1]
  EC50: 24.8 nM
[2]
  EC50: 24.6 nM
[3]
  EC50: 83.7 nM

## Cc1cc(CN2CCN(C(=O)OC(C)C)[C@@H](C)C2)c(C)c(Nc2nnc(C)o2)c1 [Example 35, isopropyl (2S)-4-[[2,5-dimethyl-3-[(5-methyl-1,3,4-oxadiazol-2-yl)amino]phenyl]methyl]-2-methyl-piperazine-1-carboxylate]
[1]
  EC50: 106 nM
[2]
  EC50: 33.9 nM
[3]
  EC50: 499 nM

## Cc1cc(CN2CCN(C(=O)OC(C)C)[C@@H](C)C2)c(C)c(Nc2nnc([C@@H](N)CO)o2)c1 [Example 36, isopropyl (2S)-4-[[3-[[5-[(1S)-1-amino-2-hydroxy-ethyl]-1,3,4-oxadiazol-2-yl]amino]-2,5-dimethyl-phenyl]methyl]-2-methyl-piperazine-1-carboxylate]
[1]
  EC50: 366 nM
[2]
  EC50: 84.1 nM
[3]
  EC50: 451 nM

## Cc1cc(CN2CCN(C(=O)OC(C)C)[C@@H](C)C2)c(C)c(Nc2nnc([C@H]3C[C@@H](O)C3)o2)c1 [Example 37, isopropyl (2S)-4-[[3-[[5-(3-hydroxycyclobutyl)-1,3,4-oxadiazol-2-yl]amino]-2,5-dimethyl-phenyl]methyl]-2-methyl-piperazine-1-carboxylate]
[1]
  EC50: 43.7 nM
[2]
  EC50: 40.8 nM
[3]
  EC50: 426 nM

## CC[C@H](N)c1nnc(Nc2cc(Cl)cc(CN3CCN(C(=O)OC(C)C)[C@@H](C)C3)c2C)o1 [Example 38, isopropyl (2S)-4-[[3-[[5-[(1S)-1-aminopropyl]-1,3,4-oxadiazol-2-yl]amino]-5-chloro-2-methyl-phenyl]methyl]-2-methyl-piperazine-1-carboxylate]
[1]
  EC50: 58.5 nM
[2]
  EC50: 49.7 nM
[3]
  EC50: 403 nM

## Cc1c(CN2CCN(C(=O)OC(C)C)[C@@H](C)C2)cc(Cl)cc1Nc1nnc([C@@H](C)O)o1 [Example 39, isopropyl (2S)-4-[[5-chloro-3-[[5-[(1R)-1-hydroxyethyl]-1,3,4-oxadiazol-2-yl]amino]-2-methyl-phenyl]methyl]-2-methyl-piperazine-1-carboxylate]
[1]
  EC50: 38.2 nM
[2]
  EC50: 29.2 nM
[3]
  EC50: 377 nM

## Cc1c(CN2CCN(C(=O)OC(C)C)[C@@H](C)C2)cc(Cl)cc1Nc1nnc(C2COC2)o1 [Example 40, isopropyl (2S)-4-[[5-chloro-2-methyl-3-[[5-(oxetan-3-yl)-1,3,4-oxadiazol-2-yl]amino]phenyl]methyl]-2-methyl-piperazine-1-carboxylate]
[1]
  EC50: 212 nM
[2]
  EC50: 21.2 nM
[3]
  EC50: 365 nM
